Values of other authors, collected in US20170276692A1, “METHODS OF MONITORING FOR ADHERENCE TO BREXPIPRAZOLE (REXULTI®) THERAPY” (Ameritox, LLC, priority 2016, published 2017).

Legend:
[1] = brexpiprazole is the predominant species
[2] = for predominant route of excretion: in vivo

| metabolite level in plasma [1] | oral bioavailability (after oral administration) [%] | time to steady state serum concentrations (days of dosing) [days] | mean elimination half-life (in vivo) [h] | fraction of an oral dose excreted as unchanged brexpiprazole in feces ([2]; oral dose, feces) [%] | fraction of an oral dose excreted as unchanged brexpiprazole in urine ([2]; oral dose, urine) | Compound | predominant route of excretion [2] |
| --- | --- | --- | --- | --- | --- | --- | --- |
| 0-4% | – | – | – | – | – | O=C(O)CCCOc1ccc2ccc(=O)[nH]c2c1 [OPC3952] | excreted predominantly in urine |
| – | 95 | 10 to 12 | 91 | 14 | Less than 1% | O=c1ccc2ccc(OCCCCN3CCN(c4cccc5sccc45)CC3)cc2[nH]1 [Brexpiprazole] | – |
| – | – | – | – | – | – | c1cc(N2CCNCC2)c2ccsc2c1 [SF034318] | excreted predominantly in urine |
